Earlier results in patent US20150080385A1, “OPHTHALMIC PHARMACEUTICAL COMPOSITION CONTAINING A CARBONIC ANHYDRASE INHIBITOR AND METHOD FOR THE PREPARATION THEREOF” (PHARMATHEN S.A., priority 2012, published 2015).

- Solubility in alcohol and methanol (alcohol and methanol): slightly soluble
- Solubility in water (water): insoluble
Compound: CCN[C@H]1CN(CCCOC)S(=O)(=O)c2sc(S(N)(=O)=O)cc21 [Brinzolamide, (R)-4-ethylamino-3,4-dihydro-2-(3-methoxy) propyl-2H-thieno[3,2-e]-1,2-thiazine-6-sulfonamide 1, 1 dioxide]
